Literature values, collected in patent US5385907A, “Ointments containing FK-506 or derivatives thereof” (priority 1990, dated 1995).

Settings: dissolved in ethanol (EP-A-315978)

C=CCC1C=C(C)CC(C)CC(OC)C2OC(O)(C(=O)C(=O)N3CCCCC3C(=O)OC(C(C)=CC3CCC(O)C(OC)C3)C(C)C(O)CC1=O)C(C)CC2OC (stereo not shown) [FK 506 substance, 17-allyl-1,14-dihydroxy-12-[2-(4-hydroxy-3-methoxycyclohexyl)-1-methylvinyl]-23,25-dimethoxy-13,19,21,27-tetramethyl-11,28-dioxa-4-azatricyclo[22.3.1.0^4,9]octacos-18-ene-2,3,10,16-tetraone]
inflammatory inhibition: effective against inflammatory inhibition
